# Experimental data reported in BindingDB's records for doi:10.1016/j.bmcl.2009.09.017 (Pfizer, 2009).
# Test: Antagonist activity at P2Y12 receptor in human platelet rich plasma assessed as inhibition of ADP-induced platelet aggregation by light transmission aggregometry
row,Compound,IC50 [nM]
1,CCCCCOC(=O)N1CCN(C(=O)[C@H](CCC(=O)O)NC(=O)c2cc(N3CCC(COC)CC3)nc(-c3ccccc3)n2)CC1 [(S)-4-(6-(4-(methoxymethyl)piperidin-1-yl)-2-phenylpyrimidine-4-carboxamido)-5-oxo-5-(4-(pentyloxycarbonyl)piperazin-1-yl)pentanoic acid],2000
2,CCCCCOC(=O)N1CCN(C(=O)[C@H](CCC(=O)O)NC(=O)c2cc(N3CCN(C(C)=O)CC3)nc(-c3ccccc3)n2)CC1 [(S)-4-(6-(4-acetylpiperazin-1-yl)-2-phenylpyrimidine-4-carboxamido)-5-oxo-5-(4-(pentyloxycarbonyl)piperazin-1-yl)pentanoic acid],1500
3,CCCCCOC(=O)N1CCN(C(=O)[C@H](CCC(=O)O)NC(=O)c2cc(N3CCC(N)CC3)nc(-c3ccccc3)n2)CC1 [(S)-4-(6-(4-aminopiperidin-1-yl)-2-phenylpyrimidine-4-carboxamido)-5-oxo-5-(4-(pentyloxycarbonyl)piperazin-1-yl)pentanoic acid],720
4,CCCCCOC(=O)N1CCN(C(=O)[C@H](CCC(=O)O)NC(=O)c2cc(N3CCN(C(N)=O)CC3)nc(-c3ccccc3)n2)CC1 [(S)-4-(6-(4-carbamoylpiperazin-1-yl)-2-phenylpyrimidine-4-carboxamido)-5-oxo-5-(4-(pentyloxycarbonyl)piperazin-1-yl)pentanoic acid],940
5,CCCCCOC(=O)N1CCN(C(=O)[C@H](CCC(=O)O)NC(=O)c2cc(N3CCC(C(N)=O)CC3)nc(-c3ccccc3)n2)CC1 [(S)-4-(6-(4-carbamoylpiperidin-1-yl)-2-phenylpyrimidine-4-carboxamido)-5-oxo-5-(4-(pentyloxycarbonyl)piperazin-1-yl)pentanoic acid],690
6,CCCCCOC(=O)N1CCN(C(=O)[C@H](CCC(=O)O)NC(=O)c2cc(N3CCC(OC)CC3)nc(-c3ccccc3)n2)CC1 [(S)-4-(6-(4-methoxypiperidin-1-yl)-2-phenylpyrimidine-4-carboxamido)-5-oxo-5-(4-(pentyloxycarbonyl)piperazin-1-yl)pentanoic acid],2700
7,CCCCCOC(=O)N1CCN(C(=O)[C@H](CCC(=O)O)NC(=O)c2cc(N3CCN(C)CC3)nc(-c3ccccc3)n2)CC1 [(S)-4-(6-(4-methylpiperazin-1-yl)-2-phenylpyrimidine-4-carboxamido)-5-oxo-5-(4-(pentyloxycarbonyl)piperazin-1-yl)pentanoic acid],1400
8,CCCCCOC(=O)N1CCN(C(=O)[C@H](CCC(=O)O)NC(=O)c2cc(N3CCC(C)CC3)nc(-c3ccccc3)n2)CC1 [(S)-4-(6-(4-methylpiperidin-1-yl)-2-phenylpyrimidine-4-carboxamido)-5-oxo-5-(4-(pentyloxycarbonyl)piperazin-1-yl)pentanoic acid],> 10000
9,CCCCCOC(=O)N1CCN(C(=O)[C@H](CCC(=O)O)NC(=O)c2cc(N3CCC(N4CCOCC4)CC3)nc(-c3ccccc3)n2)CC1 [(S)-4-(6-(4-morpholinopiperidin-1-yl)-2-phenylpyrimidine-4-carboxamido)-5-oxo-5-(4-(pentyloxycarbonyl)piperazin-1-yl)pentanoic acid],780
10,CCCCCOC(=O)N1CCN(C(=O)[C@H](CCC(=O)O)NC(=O)c2cc(OCC3CCN(C)CC3)nc(-c3ccccc3)n2)CC1 [(S)-4-(6-((1-methylpiperidin-4-yl)methoxy)-2-phenylpyrimidine-4-carboxamido)-5-oxo-5-(4-(pentyloxycarbonyl)piperazin-1-yl)pentanoic acid],3600
11,CCCCCOC(=O)N1CCN(C(=O)[C@H](CCC(=O)O)NC(=O)c2cc(SC3CCCCC3)nc(-c3ccccc3)n2)CC1 [(S)-4-(6-(cyclohexylthio)-2-phenylpyrimidine-4-carboxamido)-5-oxo-5-(4-(pentyloxycarbonyl)piperazin-1-yl)pentanoic acid],> 10000
12,CCCCCOC(=O)N1CCN(C(=O)[C@H](CCC(=O)O)NC(=O)c2cc(SC3CCCC3)nc(-c3ccccc3)n2)CC1 [(S)-4-(6-(cyclopentylthio)-2-phenylpyrimidine-4-carboxamido)-5-oxo-5-(4-(pentyloxycarbonyl)piperazin-1-yl)pentanoic acid],> 10000
13,CCCCCOC(=O)N1CCN(C(=O)[C@H](CCC(=O)O)NC(=O)c2cc(SC(C)(C)C)nc(-c3ccccc3)n2)CC1 [(S)-4-(6-(tert-butylthio)-2-phenylpyrimidine-4-carboxamido)-5-oxo-5-(4-(pentyloxycarbonyl)piperazin-1-yl)pentanoic acid],> 10000
14,CCCCCOC(=O)N1CCN(C(=O)[C@H](CCC(=O)O)NC(=O)c2cc(N3CCOCC3)nc(-c3ccccc3)n2)CC1 [(S)-4-(6-morpholino-2-phenylpyrimidine-4-carboxamido)-5-oxo-5-(4-(pentyloxycarbonyl)piperazin-1-yl)pentanoic acid],6300
15,CCCCOC(=O)N1CCN(C(=O)[C@H](CCC(=O)O)NC(=O)c2cc(OC3CCN(C(C)C)CC3)nc(-c3ccccc3)n2)CC1 [(S)-5-(4-(butoxycarbonyl)piperazin-1-yl)-4-(6-(1-isopropylpiperidin-4-yloxy)-2-phenylpyrimidine-4-carboxamido)-5-oxopentanoic acid],1800
16,CCCCOC(=O)N1CCN(C(=O)[C@H](CCC(=O)O)NC(=O)c2cc(OCCN(CC)CC)nc(-c3ccccc3)n2)CC1 [(S)-5-(4-(butoxycarbonyl)piperazin-1-yl)-4-(6-(2-(diethylamino)ethoxy)-2-phenylpyrimidine-4-carboxamido)-5-oxopentanoic acid],3000
17,CCCCOC(=O)N1CCN(C(=O)[C@H](CCC(=O)O)NC(=O)c2cc(OCCOC)nc(-c3ccccc3)n2)CC1 [(S)-5-(4-(butoxycarbonyl)piperazin-1-yl)-4-(6-(2-methoxyethoxy)-2-phenylpyrimidine-4-carboxamido)-5-oxopentanoic acid],2600
18,CCCCOC(=O)N1CCN(C(=O)[C@H](CCC(=O)O)NC(=O)c2cc(N3CCC(CCOC)CC3)nc(-c3ccccc3)n2)CC1 [(S)-5-(4-(butoxycarbonyl)piperazin-1-yl)-4-(6-(4-(2-methoxyethyl)piperidin-1-yl)-2-phenylpyrimidine-4-carboxamido)-5-oxopentanoic acid],1200
19,CCCCOC(=O)N1CCN(C(=O)[C@H](CCC(=O)O)NC(=O)c2cc(N3CCC(C(=O)N(CC)CC)CC3)nc(-c3ccccc3)n2)CC1 [(S)-5-(4-(butoxycarbonyl)piperazin-1-yl)-4-(6-(4-(diethylcarbamoyl)piperidin-1-yl)-2-phenylpyrimidine-4-carboxamido)-5-oxopentanoic acid],280
20,CCCCOC(=O)N1CCN(C(=O)[C@H](CCC(=O)O)NC(=O)c2cc(N3CCC(C(=O)N(C)C)CC3)nc(-c3ccccc3)n2)CC1 [(S)-5-(4-(butoxycarbonyl)piperazin-1-yl)-4-(6-(4-(dimethylcarbamoyl)piperidin-1-yl)-2-phenylpyrimidine-4-carboxamido)-5-oxopentanoic acid],1500
21,CCCCOC(=O)N1CCN(C(=O)[C@H](CCC(=O)O)NC(=O)c2cc(N3CCC(OC)CC3)nc(-c3ccccc3)n2)CC1 [(S)-5-(4-(butoxycarbonyl)piperazin-1-yl)-4-(6-(4-methoxypiperidin-1-yl)-2-phenylpyrimidine-4-carboxamido)-5-oxopentanoic acid],1800
22,CCCCOC(=O)N1CCN(C(=O)[C@H](CCC(=O)O)NC(=O)c2cc(N3CCC(N4CCOCC4)CC3)nc(-c3ccccc3)n2)CC1 [(S)-5-(4-(butoxycarbonyl)piperazin-1-yl)-4-(6-(4-morpholinopiperidin-1-yl)-2-phenylpyrimidine-4-carboxamido)-5-oxopentanoic acid],880
23,CCCCOC(=O)N1CCN(C(=O)[C@H](CCC(=O)O)NC(=O)c2cc(OCC3CCN(C)CC3)nc(-c3ccccc3)n2)CC1 [(S)-5-(4-(butoxycarbonyl)piperazin-1-yl)-4-(6-((1-methylpiperidin-4-yl)methoxy)-2-phenylpyrimidine-4-carboxamido)-5-oxopentanoic acid],3000
24,CCCCOC(=O)N1CCN(C(=O)[C@H](CCC(=O)O)NC(=O)c2cc(N3CCC(N4CCCC4)CC3)nc(-c3ccccc3)n2)CC1 [(S)-5-(4-(butoxycarbonyl)piperazin-1-yl)-5-oxo-4-(2-phenyl-6-(4-(pyrrolidin-1-yl)piperidin-1-yl)pyrimidine-4-carboxamido)pentanoic acid],660
25,CCCCOC(=O)N1CCN(C(=O)[C@H](CCC(=O)O)NC(=O)c2cc(N3CCC(C(=O)N4CCCC4)CC3)nc(-c3ccccc3)n2)CC1 [(S)-5-(4-(butoxycarbonyl)piperazin-1-yl)-5-oxo-4-(2-phenyl-6-(4-(pyrrolidine-1-carbonyl)piperidin-1-yl)pyrimidine-4-carboxamido)pentanoic acid],390
26,CCCCOC(=O)N1CCN(C(=O)[C@H](CCC(=O)O)NC(=O)c2cc(OCC3CCNCC3)nc(-c3ccccc3)n2)CC1 [(S)-5-(4-(butoxycarbonyl)piperazin-1-yl)-5-oxo-4-(2-phenyl-6-(piperidin-4-ylmethoxy)pyrimidine-4-carboxamido)pentanoic acid],1200
27,CCCCOC(=O)N1CCN(C(=O)[C@H](CCC(=O)O)NC(=O)c2cc(OC3CCNCC3)nc(-c3ccccc3)n2)CC1 [(S)-5-(4-(butoxycarbonyl)piperazin-1-yl)-5-oxo-4-(2-phenyl-6-(piperidin-4-yloxy)pyrimidine-4-carboxamido)pentanoic acid],1300
28,CCCCCOC(=O)N1CCN(C(=O)[C@H](CCC(=O)O)NC(=O)c2cc(N3CCN(CC(=O)N4CCCC4)CC3)nc(-c3ccccc3)n2)CC1 [(S)-5-oxo-4-(6-(4-(2-oxo-2-(pyrrolidin-1-yl)ethyl)piperazin-1-yl)-2-phenylpyrimidine-4-carboxamido)-5-(4-(pentyloxycarbonyl)piperazin-1-yl)pentanoic acid],1100
29,CCCCCOC(=O)N1CCN(C(=O)[C@H](CCC(=O)O)NC(=O)c2cc(N3CCC(CC(=O)N4CCCC4)CC3)nc(-c3ccccc3)n2)CC1 [(S)-5-oxo-4-(6-(4-(2-oxo-2-(pyrrolidin-1-yl)ethyl)piperidin-1-yl)-2-phenylpyrimidine-4-carboxamido)-5-(4-(pentyloxycarbonyl)piperazin-1-yl)pentanoic acid],1500
